Assay results reported in patent publication US20180021450A1, “ANTI-STAPHYLOCOCCUS AUREUS ANTIBODY RIFAMYCIN CONJUGATES AND USES THEREOF” (Genentech, Inc., priority 2014, published 2018).

Experiments:
[1] = tested on: S. aureus (USA300) persister cells; assay: Killing of persister cells by free antibiotics; format: cell-based, Staphylococcus aureus; conditions: ciprofloxacin-treated cultures, second antibiotic 1 ug/ml
Experimental: Killing of persisters cells by free antibiotics: S. aureus (USA300) was taken from an overnight stationary phase culture, washed once in Tryptic Soy Broth (TSB) and then adjusted to a final concentration of 1×10^7 CFU/ml in a total volume of 10 mL of either TSB or TSB with ciprofloxicin (0.05 mM). Cultures were incubated with shaking at 37° C. for 6 hours and then the second antibiotic, either rifampicin (1 ug/ml) or another rifamycin-type antibiotic (1 ug/ml) was added. At the indicated times, samples were removed from each culture, washed once with PBS to remove the antibiotic and re-suspended in PBS. The total number of surviving bacteria was determined by plating serial dilutions of the bacteria on agar plates. At the final time point the remainder of each culture was collected and plated.

[2] = tested on: MRSA (USA300 NRS384 strain); assay: Murine intravenous infection model (CB17.SCID mice reconstituted with IGIV); format: in vivo, Staphylococcus aureus; conditions: single dose 24h post infection; free antibiotic at equal molar concentration
Experimental: S. aureus is a common colonizer of human skin and mucosal surfaces. […] Mouse serum has no appreciable levels of anti-S aureus antibody. To determine whether endogenous anti-WTA antibodies found in normal human serum might compete for binding with the AAC, CB17.SCID mice (Charles River Laboratories, Hollister, Calif.) were reconstituted with GammaGard S/D IGIV Immune Globulin (ASD Healthcare, Brooks Ky.) using a dosing regimen optimized to achieve constant serum levels of at least 10 mg/mL of human IgG in serum. IGIV was administered with an initial intravenous dose of 30 mg per mouse followed by a second dose of 15 mg/mouse by intraperitoneal (i.p.) injection after 6 hours, and subsequent daily dosings of 15 mg per mouse by intraperitoneal injection for 3 consecutive days. These mice were equally susceptible to infection with MRSA compared to untreated controls.
Mice (n=8 for each of antibody or AAC) were infected 4 hours after the first dose of IGIV with 1×10^7 CFU of MRSA (USA300 NRS384 strain) diluted in phosphate buffered saline by intravenous injection. Infected mice were treated with 50 mg/kg of S4497 naked antibody or S4497 AAC from Table 3. […] The total number of bacteria recovered per organ was determined by plating serial dilutions of the tissue homogenate in PBS 0.05% Tween on Tryptic Soy Agar with 5% defibrinated sheep blood.

[3] = tested on: S. aureus (USA300), stationary phase; assay: Time of kill for free antibiotics on non-replicating bacteria; format: cell-based, Staphylococcus aureus; conditions: 1×10^-6M antibiotic, overnight incubation in PBS at 37° C.
Experimental: Time of kill for free antibiotics on non-replicating bacteria: S. aureus (USA300) was taken from an overnight stationary phase culture, washed once in Phosphate Buffered Saline (PBS) and suspended at 1×10^7 CFU/mL in PBS with no antibiotic or with 1×10^-6M antibiotic in a 10 mL volume in 50 mL polypropylene centrifuge tubes. The bacteria were incubated at 37° C. overnight with shaking. At each time point, three 1 mL samples were removed from each culture and centrifuged to collect the bacteria. Bacteria were washed once with PBS to remove the antibiotic and the total number of surviving bacteria was determined by plating serial dilutions of the bacteria on agar plates.
MRSA was collected from a stationary phase culture and suspended in phosphate buffered saline containing no antibiotic or 1×10^-6M of rifampin or the rifamycin-derivative (Rifalog) and incubated at 37° C. At the indicated times, a sample of the culture was collected and centrifuged to remove the antibiotic and the total number of surviving bacteria was determined by plating.

For `CO[C@H]1/C=C/O[C@@]2(C)Oc3c(C)c(O)c4c(=O)c(c5oc6cc(N7CCC(N(C)C)CC7)cc(O)c6nc-5c4c3C2=O)NC(=O)/C(C)=C\C=C\[C@H](C)[C@H](O)[C@@H](C)[C@@H](O)[C@@H](C)[C@H](OC(C)=O)[C@@H]1C` [dimethylpipBOR, dimethylpiperidyl benzoxazino rifamycin], the “effect on viability of persister cells” value [1] was “eradication of persister cells below the limit of detection”, the “efficacy on bacterial counts in infected organs” value [2] was “not efficacicou” and the “decrease in the number of viable, but non-replicating, bacteria” value [3] was “more than 1,000 fold”.
